Test results published in US6489307B1, “Antisense compositions targeted to β1-adrenoceptor-specific mRNA and methods of use” (University of Florida, priority 1998, dated 2002).
“Also recorded” adds a separate entry of the source.

Key:
[1] = system: isolated perfused SHR hearts; experiment: Isolated perfused SHR hearts (Langendorff), response to isoproterenol; type: in vivo, rat (SHR); settings: 48 hr after 1 mg/kg; vs inverted ODN
Experimental: 48 hr after injection of 1 mg/kg β1-AS-ODN (n=9) or inverted ODN (n=6), SHRs were anesthetized and killed. Hearts were quickly removed and perfused via the aorta with oxygenated Krebs buffer (118 mmol/L NaCl, 18.75 mmol/L NaHCO3 1.2 mmol/L KH2PO4, 4.7 mmol/L KCl, 1.2 mmol/L MgSO4, 1.25 mmol/L CaCl2, 11.1 mmol/L glucose, and 0.01 mmol/L EDTA) at a constant flow of 7.0 mL/min. at 36° C. Coronary perfusion pressure was measured via a catheter placed proximal to the aorta and connected to a pressure transducer (Gould Staham P23ID, Eastlake, Ohio). A latex balloon filled with water and connected to the pressure transducer was inserted into the left ventricle through the left atrium to measure left ventricular end-diastolic pressure (LVEDP), left ventricular systolic pressure (LVSP), and developed left ventricular pressure (dLVP) (dLVP=LVSP−LVEDP). LVEDP during equilibration was set at 5 to 7 mm Hg. Coronary perfusion pressure, LVEDP, and LVSP were recorded continuously on a 4-channel recorder (Astro-Med, West Warwick, R.I.). […]
Forty-eight hr after injection of 1 mg/kg β1-AS-ODN (n=9) or inverted-ODN (n=6), SHR were anesthetized and sacrificed. […] Coronary perfusion pressure (CPP) was measured via a catheter placed proximal to the aorta and connected to a pressure transducer (Gould Statham P23ID). […] CPP, LVEDP and LVSP were continuously recorded on a 4-channel recorder (Astro-Med). […]

β2-AR [2] = experiment: β-adrenergic receptor binding assay on renal cortex membranes; type: in vivo, rat (SHR); settings: 0.5 mg/kg i.v.
Experimental: Four days after intravenous injection of saline (n=6) or 0.5 mg/kg inverted ODN (n=6) or 4, 10, 18 and 40 days after injection of 0.5 mg/kg β1-AS-ODN (n=24), animals were euthanized, and membranes were prepared from the renal cortex of the left kidneys as previously described (Baker and Pitha, 1982). For saturation studies, 100 μg membrane protein was incubated in triplicate with 6 concentrations of [^125](−)iodocyanopindolol (ICYP, NEN Life Science, 6.25 to 100 pmol/L) in a total volume of 250 μL containing 50 mmol/L Tris-HCl (pH 7.4) and 5 mmol/L MgCl2 at 36° C. for 60 min. The nonspecific and β2-adrenergic receptor binding levels were determined in the presence of 1 μmol/L (±)-alprenolol and […] CGP20712A (RBI), respectively. Then the reaction mixture was passed through a Whatman GF/B glass fiber filter with a Brandel harvester, and the bound radioactivity was counted for 1 min.

plasma Ang II = experiment: Plasma Ang II radioimmunoassay; type: in vivo, rat (SHR)
Experimental: Plasma Ang II levels were measured by radioimmunoassay as previously described (Phillips and Kimura, 1988).

β2-AR [3] = experiment: β-AR density in myocardium after ischemia-reperfusion (binding assay); parameters: species or system Sprague-Dawley rats; settings: rat, in vivo
Experimental: Membrane protein was prepared from left ventricles as previously described (Baker and Pitha, 1982). For saturation studies, 100 μg membrane protein was incubated in triplicate with ^125I-(−)iodocyanopindolol (I-CYP, NEN Life Science, 6.25-100 pM) in a total volume of 250 μl containing 50 mM Tris-HCl (pH 7.4), 5 mM MgCl2 at 36° C. for 60 min. The nonspecific and β2-adrenoceptor binding were determined in the presence of 1 μM (±)-alprenolol and […] (RBI), respectively. Then the reaction mixture was passed through Whatman GF/B glass filter using Brandel harvester and the radioactivity was counted for one min.

Substance: 5′-CCGCGCCCATGCCGA-3′ (phosphorothioate backbone, further chemistry not given here) [β1-AS-ODN, 15-mer antisense ODN targeted to the AUG start codon of rat β1-AR mRNA]
- HR response to ISO [1]: not significantly decreased
- dLVP-ISO dose-response curve (positive inotropic effect of ISO) [1]: significantly shifted downward; also recorded: significantly shifted down
- β2-AR level in renal cortex (β2-AR [2]): not affected
- plasma Ang II levels (plasma Ang II; day 4): not on day 4
- plasma Ang II levels (plasma Ang II; day 10 and day 18): significantly decreased
- β2-AR density in ischemic-reperfused myocardium (β2-AR [3]): no change
